Literature values, collected in US11166911B2, “Parenteral dosage form of amiodarone” (SUN PHARMACEUTICAL INDUSTRIES LIMITED, priority 2016, dated 2021).

Conditions: Parmar et al. 1997

Degradation upon storage at higher temperatures: degrade significantly
Structure (SMILES): CCCCc1oc2ccccc2c1C(=O)c1cc(I)c(OCCN(CC)CC)c(I)c1 [Amidarone]
